Measured values taken from patent US9062284B2, “Uses and detection of herbicide resistance genes for resistance to aryloxyalkanoate herbicides” (Dow ArgoSciences LLC, priority 2007, dated 2015).

Assays:
[1] = tested on: AAD-13 (v1) transformed T1 Arabidopsis; assay: Postemergence herbicide response of AAD-13 (v1) T1 Arabidopsis; assay type: in vivo, Arabidopsis thaliana; settings: 14 DAT
Procedure: Seven days after planting (DAP) and again 11 DAP, T1 plants (cotyledon and 2-4-lf stage, respectively) were sprayed with a 0.2% solution of Liberty herbicide (200 g ai/L glufosinate, Bayer Crop Sciences, Kansas City, Mo.) at a spray volume of 10 ml/tray (703 L/ha) using a DeVilbiss compressed air spray tip to deliver an effective rate of 280 g ai/ha glufosinate per application. Survivors (plants actively growing) were identified 4-7 days after the final spraying and transplanted individually into 3-inch pots prepared with potting media (Metro Mix 360). Transplanted plants were covered with humidity domes for 3-4 days and placed in a 22° C. growth chamber as before or moved to directly to the greenhouse. Domes were subsequently removed and plants reared in the greenhouse (22±5° C., 50±30% RH, 14 h light:10 dark, minimum 500 μE/m^2s^1 natural+supplemental light) at least 1 day prior to testing for the ability of AAD-13 (v1) to provide phenoxy auxin herbicide resistance.
T1 plants were then randomly assigned to various rates of 2,4-D. For Arabidopsis, 50 g ae/ha 2,4-D is an effective dose to distinguish sensitive plants from ones with meaningful levels of resistance. Elevated rates were also applied to determine relative levels of resistance (280, 560, 1120, or 2240 g ae/ha). Tables 11 and 12 show comparisons drawn to an aryloxyalkanoate herbicide resistance gene (AAD-12 (v1)) previously described in PCT/US2006/042133.
(§1) All auxin herbicide applications were made using the DeVilbiss sprayer as described above to apply 703 L/ha spray volume (0.4 ml solution/3-inch pot) or applied by track sprayer in a 187 L/ha spray volume. 2,4-D used was either technical grade (Sigma, St. Louis, Mo.) dissolved in DMSO and diluted in water (<1% DMSO final concentration) or the commercial dimethylamine salt formulation (456 g ae/L, NuFarm, St Joseph, Mo.). Dichlorprop used was commercial grade formulated as potassium salt of R-dichlorprop (600 g ai/L, AH Marks). As herbicide rates increased beyond 800 g ae/ha, the pH of the spray solution became exceedingly acidic, burning the leaves of young, tender Arabidopsis plants and complicating evaluation of the primary effects of the herbicides.
The first Arabidopsis transformations were conducted using AAD-13 (v1) (plant optimized gene). T1 transformants were first selected from the background of untransformed seed using a glufosinate selection scheme. Over 160,000 T1 seed were screened and 238 glufosinate resistant plants were identified (PAT gene), equating to a transformation/selection frequency of 0.15% which lies in the normal range of selection frequency of constructs where PAT+Liberty are used for selection. T1 plants selected above were subsequently transplanted to individual pots and sprayed with various rates of commercial aryloxyalkanoate herbicides. Table 11 compares the response of AAD-13 (v1) and control genes to impart 2,4-D resistance to Arabidopsis T1 transformants. Response is presented in terms of % visual injury 2 WAT. […] An arithmetic mean and standard deviation is presented for each treatment. The range in individual response is also indicated in the last column for each rate and transformation. PAT/Cry1F-transformed Arabidopsis served as an auxin-sensitive transformed control. The AAD-13 (v1) gene imparted herbicide resistance to individual T1 Arabidopsis plants. Within a given treatment, the level of plant response varied greatly and can be attributed to the fact each plant represents an independent transformation event. Of important note, at each 2,4-D rate tested, there were individuals that were unaffected while some were severely affected. […] At high rates the spray solution becomes highly acidic unless buffered therefore some of the injury may be attributed to the acidity of the spray solution. Arabidopsis grown mostly in the growth chamber has a very thin cuticle and severe burning effects can complicate testing at these elevated rates. […]

[2] = tested on: PAT/Cry1F-transformed tobacco; assay: 2,4-D DMA response of PAT/Cry1F transformed control T0 tobacco; assay type: in vivo, Nicotiana tabacum; settings: 14 days after application
Excerpt: (§2) Following the acclimation in the greenhouse T0 plants were then randomly assigned to various rates of 2,4-D DMA ranging from 140 to 2240 g ae/ha at […] increments. For tobacco, 140 g ae/ha 2,4-D is an effective dose to distinguish sensitive plants from ones with meaningful levels of resistance.

[3] = tested on: AAD-13 (v1) gene T0 tobacco plants; assay: 2,4-D DMA response of AAD-13 (v1) T0 tobacco; assay type: in vivo, Nicotiana tabacum; settings: for % Injury 20-40% (individuals) / % Injury <20% (individuals) / % Injury >40% (individuals) / % Injury Ave: 14 days after application
Excerpt: as §2

[4] = tested on: Wildtype (untransformed control) Arabidopsis; assay: R-dichlorprop response of wildtype Arabidopsis; assay type: in vivo, Arabidopsis thaliana; settings: 800 g ae/ha postemergence, 14 DAT
Procedure: as §1
The fact that AAD-1 (v3) will metabolize R-dichlorprop well enough to impart commercially acceptable tolerance is one distinguishing characteristic that separates the three genes (Table 12 and Example 7 of PCT/US2006/042133 (Wright et al., filed Oct. 27, 2006). AAD-1 and AAD-13 are considered R- and S-specific α-ketoglutarate dioxygenases, respectively.

CNC.O=C(O)COc1ccc(Cl)cc1Cl [2,4-D DMA]
% Injury 20-40% (individuals) ([1]; 280 g ae/ha postemergence): 4
% Injury <20% (individuals) ([1]; 280 g ae/ha postemergence): 12
% Injury >40% (individuals) ([1]; 280 g ae/ha postemergence): 4
% Injury Ave ([1]; 280 g ae/ha postemergence): 21%
% Injury 20-40% (individuals) ([1]; 560 g ae/ha postemergence): 2
% Injury <20% (individuals) ([1]; 560 g ae/ha postemergence): 17
% Injury >40% (individuals) ([1]; 560 g ae/ha postemergence): 0
% Injury Ave ([1]; 560 g ae/ha postemergence): 2%
% Injury 20-40% (individuals) ([1]; 1120 g ae/ha postemergence): 0
% Injury <20% (individuals) ([1]; 1120 g ae/ha postemergence): 20
% Injury >40% (individuals) ([1]; 1120 g ae/ha postemergence): 0
% Injury Ave ([1]; 1120 g ae/ha postemergence): 2%
% Injury 20-40% (individuals) ([1]; 2240 g ae/ha postemergence): 3
% Injury <20% (individuals) ([1]; 2240 g ae/ha postemergence): 14
% Injury >40% (individuals) ([1]; 2240 g ae/ha postemergence): 3
% Injury Ave ([1]; 2240 g ae/ha postemergence): 15%
% Injury 20-40% (individuals) ([2]; 140 g ae/ha): 1
% Injury <20% (individuals) ([2]; 140 g ae/ha): 0
% Injury >40% (individuals) ([2]; 140 g ae/ha): 2
% Injury Ave ([2]; 140 g ae/ha): 47.0%
% Injury 20-40% (individuals) ([2]; 560 g ae/ha): 0
% Injury <20% (individuals) ([2]; 560 g ae/ha): 0
% Injury >40% (individuals) ([2]; 560 g ae/ha): 3
% Injury Ave ([2]; 560 g ae/ha): 75.0%
% Injury 20-40% (individuals) ([2]; 2240 g ae/ha): 0
% Injury <20% (individuals) ([2]; 2240 g ae/ha): 0
% Injury >40% (individuals) ([2]; 2240 g ae/ha): 3
% Injury Ave ([2]; 2240 g ae/ha): 97.0%
% Injury 20-40% (individuals) ([3]; 140 g ae/ha): 0
% Injury <20% (individuals) ([3]; 140 g ae/ha): 2
% Injury >40% (individuals) ([3]; 140 g ae/ha): 0
% Injury Ave ([3]; 140 g ae/ha): 8.0%
% Injury 20-40% (individuals) ([3]; 560 g ae/ha): 0
% Injury <20% (individuals) ([3]; 560 g ae/ha): 2
% Injury >40% (individuals) ([3]; 560 g ae/ha): 0
% Injury Ave ([3]; 560 g ae/ha): 3.0%
% Injury 20-40% (individuals) ([3]; 2240 g ae/ha): 0
% Injury <20% (individuals) ([3]; 2240 g ae/ha): 2
% Injury >40% (individuals) ([3]; 2240 g ae/ha): 0
% Injury Ave ([3]; 2240 g ae/ha): 5.0%
rate to which robust tolerance is provided ([3]; T0 tobacco): at least 2240 g ae/ha

C[C@@H](Oc1ccc(Cl)cc1Cl)C(=O)O [R-dichloroprop, R-dichlorprop]
% Injury 20-40% (individuals) ([1]; 800 g ae/ha postemergence): 0
% Injury <20% (individuals) ([1]; 800 g ae/ha postemergence): 0
% Injury >40% (individuals) ([1]; 800 g ae/ha postemergence): 20
% Injury Ave ([1]; 800 g ae/ha postemergence): 100%
% Injury 20-40% (individuals) [4]: 0
% Injury <20% (individuals) [4]: 0
% Injury >40% (individuals) [4]: 20
% Injury Ave [4]: 100%
